Assay results from patent US5679680A, “α-substituted hydrazides having calpain inhibitory activity” (Warner-Lambert Company, priority 1995, dated 1997).
Square brackets hold non-standard residues; d marks the D form. Ends that are not written are not given here. Peptide text beside a SMILES is read from it. Nle = CCCC[C@H](N)C(=O)O

Columns and labels:
[1] = test system: platelet; conditions: cited from earlier work
[2] = test system: aggregin; conditions: cited from earlier work
[3] = test system: Spectrin Breakdown in Human Leukemic Molt-4 cells; assay: Cell-based calpain assay: spectrin breakdown in Molt-4 cells treated with calcium ionophore A23187; conditions: 1 hour preincubation, 15 μM A23187, 90 minutes, read-out: IC50 for inhibition of spectrin breakdown (145 kD fragment formation)
Protocol: Calpain inhibitor was added to the wells if desired and preincubated for 1 hour. […] The cells were then lysed with 2% (w/v) SDS, 5 mM EGTA, 5 mM EDTA, 150 mM NaCl, 0.5 mM PMSF, 10 μg/mL AEBSF, 5 μg/mL leupeptin, 10 μg/mL pepstatin, 10 μg/mL TLCK, 10 μg/mL TPCK, and 20 mM Tris-HCl (pH 7.4) at room temperature for 5 to 10 minutes. One hundred microliters of 100% (w/v) TCA was added and total protein precipitate was collected by microcentrifugation. The final pellets were neutralized with Tris base. Protein samples (50 μg) were run on SDS-PAGE with the Tris-glycine running buffer system and transferred onto a PVDF membrane. The blots were probed with an anti-spectrin (nonerythroid) antibody and a second antibody with alkaline phosphatase conjugate. The blots were developed with nitro blue tetrazolium and 5-bromo-4-chloro-3-indolyl-phosphate.

[4] = molecular target: T1, Human Calpain I (Homo sapiens, UniProt P07384); assay: Calpain I activity, casein substrate, Coomassie microplate assay; assay type: biochemical; conditions: for IC50: casein 0.5 mg/mL, pH 7.4, 25° C., 60 minutes (Table I)
T1 construct: Calpain I was purified from human erythrocytes; from tissue; host or cells: human erythrocytes
T1 sequence (P07384 1-714): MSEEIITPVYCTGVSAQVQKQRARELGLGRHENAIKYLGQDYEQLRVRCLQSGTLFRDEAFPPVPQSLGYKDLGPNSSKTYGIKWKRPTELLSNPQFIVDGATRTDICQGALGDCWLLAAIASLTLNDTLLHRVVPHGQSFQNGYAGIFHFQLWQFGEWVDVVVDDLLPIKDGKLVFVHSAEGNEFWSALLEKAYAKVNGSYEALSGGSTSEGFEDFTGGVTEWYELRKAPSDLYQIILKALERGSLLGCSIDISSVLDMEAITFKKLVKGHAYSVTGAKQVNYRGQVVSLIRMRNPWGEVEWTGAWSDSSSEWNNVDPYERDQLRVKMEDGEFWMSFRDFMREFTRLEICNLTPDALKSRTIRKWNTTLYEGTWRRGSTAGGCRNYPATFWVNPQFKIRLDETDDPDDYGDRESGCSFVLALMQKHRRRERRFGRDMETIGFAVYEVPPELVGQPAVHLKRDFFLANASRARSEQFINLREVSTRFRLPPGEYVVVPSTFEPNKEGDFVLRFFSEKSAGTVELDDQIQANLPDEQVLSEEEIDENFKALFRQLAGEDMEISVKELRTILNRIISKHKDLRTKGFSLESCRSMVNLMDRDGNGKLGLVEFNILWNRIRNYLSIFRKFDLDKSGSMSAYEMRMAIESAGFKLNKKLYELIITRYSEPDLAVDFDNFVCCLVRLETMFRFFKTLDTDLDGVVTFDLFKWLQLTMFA
T1 sequence (P04632 1-268 partner): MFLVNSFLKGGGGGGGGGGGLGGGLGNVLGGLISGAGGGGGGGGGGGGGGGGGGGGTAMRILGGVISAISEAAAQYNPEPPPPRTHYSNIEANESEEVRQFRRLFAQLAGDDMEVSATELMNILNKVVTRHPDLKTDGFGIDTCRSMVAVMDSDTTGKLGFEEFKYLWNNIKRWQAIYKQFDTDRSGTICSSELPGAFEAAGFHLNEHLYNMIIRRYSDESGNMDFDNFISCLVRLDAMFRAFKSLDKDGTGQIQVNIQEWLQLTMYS
Protocol: (§1) Assay of calpain activity: Calpain I was purified from human erythrocytes as described by Wang K K W, Roufogalis B D, and Villalobo A, Arch Biochem Biophys 1988;267: 317-327. Calpain activity was assayed in a 96-well microplate format (Buroker-Kilgore M and Wang K K W, Anal Bio Chem 1993;208: 387-392). In 250 μL of reaction mixture, substrate casein (0.5 mg/mL) was incubated with 0.01 unit (80-120 ng) calpain I, 20 mM dithiothreitol (DTT), 50 mM Tris-HCl (pH 7.4 at 25° C.) and 4 mM CaCl2 at 25° C. for 60 minutes. Two 100-μL aliquots were taken for Coomassie blue G250 binding analysis to quantify the remaining casein.
(§2) Compound concentrations that cause 50% inhibition (IC50) are as shown (Table I). The second rate of inactivation of calpain I for 2 compounds are also shown.
(§3) Selectivity of α-substituted Hydrazides: Calpain I and II were assayed as described in Example 1. One to 2 ng papain (papaya latex, Sigma, P3125), 1.25 μg trypsin (bovine pancreas, Sigma, T8003), 5 μg thermolysin (Bacillus thermoproteolyticus, Sigma, P1512) were assayed using 0.5 mg/mL casein as substrate in the microplate format (250 μL reaction volume), essentially a described by Buroker-Kilgore, M. and Wang K K W, Anal Biochem 1993;208: 387-392. Cathepsin B (0.002 unit, bovine spleen) was assayed with 50 mM MES (pH 5.5), 100 μM carbobenzoxy-Arg-Arg-4-methoxy-beta-naphthlamide (Cbz-Arg-Arg-MNA), inhibitor, and 2 mM DTT in 200 μL for 60 minutes at room temperature. Fifty-microliter aliquots were transferred to a fluorescence-compatible plate and then read with a Perkin-Elmer fluorometer LS-50B (excitation 340 nm and emission 425 nm). Calcineurin (bovine brain, Sigma) (5 μg, 0.8 unit) was assayed with 10 mM p-nitrophenyl phosphate in 1 mM DTT, 1 mM CaCl2, 1 mM MnCl2, […] calmodulin (CaM, if added), and 50 mM Tris-HCl (pH 7.4) at 25° C. for 60 minutes or more. Production of p-nitrophenol was monitored at 405 nm. Inhibition of these proteases are presented as IC50.

[5] = molecular target: T2, Human Calpain II (Homo sapiens, UniProt P17655); assay: Calpain II activity, casein substrate, Coomassie microplate assay; assay type: biochemical; conditions: casein 0.5 mg/mL (Table I)
T2 sequence (P17655 1-700): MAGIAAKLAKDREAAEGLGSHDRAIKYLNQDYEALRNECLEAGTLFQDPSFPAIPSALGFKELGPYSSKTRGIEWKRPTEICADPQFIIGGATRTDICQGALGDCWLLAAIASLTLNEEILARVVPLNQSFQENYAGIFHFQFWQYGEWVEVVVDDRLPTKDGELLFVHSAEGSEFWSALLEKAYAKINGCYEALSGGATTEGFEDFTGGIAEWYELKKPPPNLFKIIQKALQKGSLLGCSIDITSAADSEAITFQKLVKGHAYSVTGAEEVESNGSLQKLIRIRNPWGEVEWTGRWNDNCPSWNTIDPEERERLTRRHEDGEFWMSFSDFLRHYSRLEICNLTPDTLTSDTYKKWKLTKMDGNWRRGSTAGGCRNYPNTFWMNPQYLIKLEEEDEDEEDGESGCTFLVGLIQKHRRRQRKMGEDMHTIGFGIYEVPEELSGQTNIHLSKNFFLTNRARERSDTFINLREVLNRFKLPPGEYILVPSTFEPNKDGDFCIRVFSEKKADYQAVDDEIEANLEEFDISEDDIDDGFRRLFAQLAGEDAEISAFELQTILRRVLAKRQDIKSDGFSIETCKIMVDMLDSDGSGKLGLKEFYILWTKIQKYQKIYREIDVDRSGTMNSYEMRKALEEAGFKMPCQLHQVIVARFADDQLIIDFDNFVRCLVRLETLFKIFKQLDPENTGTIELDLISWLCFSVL
T2 sequence (P04632 1-268 partner): T1 sequence (P04632 1-268 partner)
Protocol: as §1, §2, §3

[6] = test system: cataract; conditions: whole animal; cited from earlier work
[7] = test system: restenosis; conditions: in vivo; cited from earlier work
[8] = test system: acute myocardiac infraction in dogs; conditions: coronary reperfusion after acute myocardiac infraction; cited from earlier work
[9] = test system: ischemic neocortex; conditions: applied directly to the surfaces of ischemic neocortex; cited from earlier work

For “Phe-Gln-Val-Val-Cys(3-nitro-2-thiopyridine)-Gly-NH2 (FQVVC(3‑nitro‑2‑thiopyridine)G-NH2)”, the Platelet aggregation [1] is listed as “blocked aggregin breakdown and platelet aggregation” and the Aggregin breakdown [2] is listed as “blocked aggregin breakdown”.
With O=C(CBr)NN=c1[nH]c2ccccc2n(-c2ccccc2)c1=O [Example 4, 2-Bromo-acetic acid (3-oxo-4-phenyl-3,4-dihydro-1H-quinoxalin-2-ylidene)-hydrazide] the IC50 [3] was 25 µM, the IC50 [4] was 697 nM and the IC50 [5] was 574 nM.
For CC(C)C[C@H](NC(=O)[C@H]1O[C@@H]1C(=O)O)C(=O)NCCCCN=C(N)N [Example E64], the “Rate of cataract formation” value [6] is given as “reduce the rate of cataract formation”.
In the case of CCCC[C@@H](C=O)NC(=O)[C@H](CC(C)C)NC(=O)[C@H](CC(C)C)NC(C)=O [calpain inhibitor I] (Ac-Leu-Leu-[Nle]-aldehyde), the Restenosis [7] is given as “can inhibit restenosis”.
For CC(C)CCNC(=O)[C@H](CC(C)C)NC(=O)[C@H]1O[C@@H]1C(=O)O [Example E64c], the Size of infarct [8] is listed as “significantly reduce the size of infract”.
In the case of CCNC(=O)C(=O)C(CC)NC(=O)C(CC(C)C)NC(=O)OCc1ccccc1 (stereo not drawn) [AK275], the “Size of the expected infarct” value [9] is listed as “dramatically and unequivocally reduce the size of the expected infarct”.
Work on Cn1c(=O)c(=NNC(=O)CCl)[nH]c2ccccc21 [Example 14, 2-Chloro-acetic acid (4-methyl-3-oxo-3,4-dihydro-1H-quinoxalin-3-ylidene)-hydrazide] yielded an IC50 [4] of 8280 nM and an IC50 [5] of 10800 nM.
With O=C(CCl)NN=c1[nH]c2ccccc2n(-c2ccc(Cl)cc2)c1=O [Example 9, 2-Chloro-acetic acid [4-(4-chloro-phenyl)-3-oxo-3,4-dihydro-1H-quinoxalin-2-ylidene]-hydrazide] the IC50 [3] was 15 µM, the “Ki/[I] Calpain I (second rate of inactivation)” value [4] was 63.7 M⁻¹ s⁻¹ and the IC50 [4] was 486 nM. The IC50 [5] was 158 nM.
